Legend:
HT22 neuronal cells [1] = conditions: for effect on cell death of HT22 neuronal cells induced by glutamate: glutamate at 10 mM, FIG. 1
Description: The HT22 neuronal cells (mouse hippocampus neuronal line) were treated for two hours with 50 μM of pigment, followed or not by the addition of 10 mM glutamate for 24 hours at 37° C. Cell viability (in %) was measured by an MTS test (by means of a CellTiter 96®Aqueous non-Radioactive Cell Proliferation Assay kit from Promega).
The HT22 cells were treated for 2 hours either with diadinoxanthin (FIG. 2) or violaxanthin (FIG. 3) or diatoxanthin (comparative test shown in FIG. 4) at different concentrations. For each of the concentrations, cell death was then induced by glutamate (10 mM) for 24 hours at 37° C. Cell viability (in %) was measured by an MTS test. The values shown are the mean±standard deviation (n=3).
The EC50 (half maximal effective concentration) is the concentration at which a molecule induces a response halfway between the baseline and the maximum effect after a certain exposure time thereof. This determines its efficacy.

HT22 neuronal cells [2] = assay: Toxicity of pigment alone on HT22 neuronal cells (MTS cell viability); format: cell-based, mouse; conditions: 50 μM pigment, no glutamate; FIG. 1 white rectangles

Row | SMILES | effect on cell death of HT22 neuronal cells induced by glutamate (HT22 neuronal cells [1]) | EC50 (HT22 neuronal cells [1]; read-out: EC50 (half maximal effective concentration), dose-response, 2 hours pre-treatment, then glutamate 10 mM for 24 hours at 37° C., FIG. 2, FIG. 3) [µM] | toxicity of pigment alone (cell viability) (HT22 neuronal cells [2])
1 | CC1=C(C#C/C(C)=C/C=C/C(C)=C/C=C/C=C(C)/C=C/C=C(C)/C=C/[C@@]23O[C@]2(C)C[C@@H](O)CC3(C)C)C(C)(C)C[C@H](O)C1 [diadinoxanthin] | protective effect | 22 | non-toxic
2 | CC(/C=C/C=C(C)/C=C/[C@@]12O[C@]1(C)C[C@@H](O)CC2(C)C)=C\C=C\C=C(C)\C=C\C=C(C)\C=C\[C@@]12O[C@]1(C)C[C@@H](O)CC2(C)C [violaxanthin] | protective effect | – | non-toxic

From patent US12491175B2, “Composition containing carotenoids and use thereof for protecting neurons against neurodegeneration” (priority 2019, dated 2025)
